Data set [1] has as its system Mus musculus. Nature of the data set: Antidiabetic activity in high fat fed C57BL/6 mouse assessed as change in AUC of blood glucose level at 30 mg/kg, po qd administered 1 hr before glucose challenge measured up to 120 mins by oral glucose tolerance test relative to control. The data set is classed as functional, C57BL6.
Data set [2] has as its system Mus musculus. Nature of the data set: Antidiabetic activity in high fat fed C57BL/6 mouse assessed as change in AUC of blood glucose level at 1 mg/kg, po qd administered 1 hr before glucose challenge measured up to 120 mins by oral glucose tolerance test relative to control. The data set is classed as functional, C57BL6.
Data set [3] deals with Mus musculus. Description: Antidiabetic activity in high fat fed C57BL/6 mouse assessed as change in AUC of blood glucose level at 3 mg/kg, po qd administered 1 hr before glucose challenge measured up to 120 mins by oral glucose tolerance test relative to control. The data set is classed as functional, C57BL6.
The subject of data set [4] is Mus musculus. Nature of the data set: Antidiabetic activity in high fat fed C57BL/6 mouse assessed as change in AUC of blood glucose level at 10 mg/kg, po qd administered 1 hr before glucose challenge measured up to 120 mins by oral glucose tolerance test relative to control. The format is functional, C57BL6.
Data set [5] addresses T1, Glucose-dependent insulinotropic receptor (Homo sapiens, UniProt Q8TDV5).
T1 sequence (Q8TDV5 whole entry): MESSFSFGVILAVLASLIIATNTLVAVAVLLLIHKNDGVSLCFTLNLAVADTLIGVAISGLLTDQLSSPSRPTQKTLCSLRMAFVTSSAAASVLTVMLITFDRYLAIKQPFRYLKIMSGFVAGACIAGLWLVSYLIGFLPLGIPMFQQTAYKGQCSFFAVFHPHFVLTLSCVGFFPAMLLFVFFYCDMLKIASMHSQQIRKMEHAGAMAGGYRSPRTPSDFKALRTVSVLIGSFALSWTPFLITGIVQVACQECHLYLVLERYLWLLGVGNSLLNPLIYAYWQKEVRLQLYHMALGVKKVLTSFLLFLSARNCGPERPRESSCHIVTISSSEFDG
Nature of the data set: Agonist activity at human GPR119 expressed in CHO cells co-expressing Galpha15 assessed as increase of intracellular cAMP accumulation after 60 mins by HTRF assay. The format is functional, cell-based. (Changes in cAMP serve as a functional read-out for many G protein-coupled receptors.)

Data set [6] has as its target T2, Glucose-dependent insulinotropic receptor (Mus musculus, UniProt Q7TQP3).
T2 sequence (Q7TQP3 whole entry): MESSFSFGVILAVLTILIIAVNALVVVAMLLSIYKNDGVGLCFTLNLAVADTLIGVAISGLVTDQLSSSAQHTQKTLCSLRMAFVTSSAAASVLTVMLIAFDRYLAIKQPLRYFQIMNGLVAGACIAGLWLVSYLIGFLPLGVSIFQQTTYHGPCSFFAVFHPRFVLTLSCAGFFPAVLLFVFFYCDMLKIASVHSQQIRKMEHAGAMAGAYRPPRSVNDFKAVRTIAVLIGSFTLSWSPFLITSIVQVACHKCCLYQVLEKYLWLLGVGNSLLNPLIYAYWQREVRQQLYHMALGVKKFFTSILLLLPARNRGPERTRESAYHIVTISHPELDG
Description: Agonist activity at mouse GPR119 expressed in CHO cells co-expressing Galpha15 assessed as increase of intracellular cAMP accumulation after 60 mins by HTRF assay. The format is functional, cell-based.

A short description of data set [7]: Solubility of compound in PEG400 after 3 to 7 days. The format is physicochemical.
The subject of data set [8] is Mus musculus. Nature of the data set: Antidiabetic activity in high fat fed po dosed C57BL/6 mouse assessed as change in AUC of blood glucose level administered 1 hr before glucose challenge measured up to 120 mins by oral glucose tolerance test. To be noted: C57BL6, Blood, read-out: MED. The format is functional.
For data set [9], the species on record is Canis familiaris. Nature of the data set: Cardiotoxicity in dog assessed as QTc prolongation. The format is toxicity, organism-based, Canis lupus familiaris. Conditions: in vivo.
Data set [10] is described as follows: Volume of distribution at steady state in mouse at 1 mg/kg, iv and 10 mg/kg, po. The format is ADME, organism-based. To be noted: in vivo, read-out: Vdss.
A short description of data set [11]: Half life in mouse at 1 mg/kg, iv and 10 mg/kg, po. The data set is classed as ADME, organism-based. Conditions: in vivo.
Data set [12] concerns Mus musculus. Nature of the data set: Dose normalized AUC in mouse at 1 mg/kg, iv and 10 mg/kg, po. The data set is classed as ADME, organism-based. Conditions: in vivo.
Data set [13] addresses Voltage-gated inwardly rectifying potassium channel KCNH2 (Homo sapiens, UniProt Q12809). Description: Inhibition of human ERG by patch clamp technique.
A short description of data set [14]: Clearance in mouse at 1 mg/kg, iv and 10 mg/kg, po. The data set is classed as ADME, organism-based. To be noted: in vivo.

Data on three molecules can be found in ChEMBL document CHEMBL1770133, “Design of potent and selective GPR119 agonists for type II diabetes” (Bioorg Med Chem Lett, 2011).

pEC50, pIC50: −log10 of the molar value. Values after ≈ are worked out from the molar mass of the structure shown.

Chain of Voltage-gated inwardly rectifying potassium channel KCNH2 (Q12809 whole entry): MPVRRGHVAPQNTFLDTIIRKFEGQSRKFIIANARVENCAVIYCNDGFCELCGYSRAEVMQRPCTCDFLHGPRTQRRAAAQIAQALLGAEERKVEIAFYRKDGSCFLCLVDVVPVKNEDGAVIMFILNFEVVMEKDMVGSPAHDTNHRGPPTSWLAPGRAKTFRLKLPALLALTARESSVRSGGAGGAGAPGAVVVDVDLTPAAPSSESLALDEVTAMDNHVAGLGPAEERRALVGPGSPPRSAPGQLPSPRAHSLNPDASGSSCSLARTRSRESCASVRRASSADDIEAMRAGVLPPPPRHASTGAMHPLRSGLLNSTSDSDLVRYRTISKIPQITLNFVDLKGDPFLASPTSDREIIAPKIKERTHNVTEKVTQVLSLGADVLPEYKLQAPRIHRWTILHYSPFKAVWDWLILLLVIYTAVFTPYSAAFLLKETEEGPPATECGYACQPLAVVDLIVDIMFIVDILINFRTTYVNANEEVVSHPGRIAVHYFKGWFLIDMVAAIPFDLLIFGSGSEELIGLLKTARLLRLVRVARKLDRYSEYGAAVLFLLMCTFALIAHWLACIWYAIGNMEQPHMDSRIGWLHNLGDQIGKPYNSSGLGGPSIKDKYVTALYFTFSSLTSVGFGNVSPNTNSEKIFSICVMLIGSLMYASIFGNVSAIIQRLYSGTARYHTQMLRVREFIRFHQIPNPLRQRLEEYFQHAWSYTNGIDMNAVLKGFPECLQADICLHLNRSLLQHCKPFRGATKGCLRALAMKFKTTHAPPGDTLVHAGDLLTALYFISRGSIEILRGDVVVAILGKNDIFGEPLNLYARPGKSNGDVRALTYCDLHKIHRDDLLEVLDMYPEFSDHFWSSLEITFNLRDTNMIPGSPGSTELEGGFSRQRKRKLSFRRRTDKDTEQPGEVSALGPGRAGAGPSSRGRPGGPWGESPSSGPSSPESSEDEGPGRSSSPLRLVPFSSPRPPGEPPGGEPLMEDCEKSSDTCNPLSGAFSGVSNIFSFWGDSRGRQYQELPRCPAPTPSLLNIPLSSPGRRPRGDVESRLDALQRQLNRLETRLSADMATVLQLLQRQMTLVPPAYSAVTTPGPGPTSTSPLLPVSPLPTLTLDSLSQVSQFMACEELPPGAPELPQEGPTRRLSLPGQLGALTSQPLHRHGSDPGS

A word on the pEC50: it is the negative decadic logarithm of the EC50, by convention in mol/L. Turning to `Cc1cnc(N2CCC(C3CCN(c4cc(C)nc(C#N)n4)CC3)CC2)cn1`, the Activity was 35% in data set [1], 7% in data set [2], 26% in data set [3] and 30% in data set [4]. Further, the negative logarithm of the EC50 (pEC50) in data set [5] was 7.72; in [6], 7.19.
Broadly, the solubility is the dissolved amount per volume that the medium holds. Lower therefore signals a poorly soluble substance. As for `Cc1cnc(N2CCC([C@H]3C[C@H]3CCOc3nc(C)cc(C#N)n3)CC2)nc1`, the solubility in data set [7] is 24.8 mg/mL (≈ 65.5 mM). In addition, in data set [8], the minimal effective dose is 0.01 mg/kg. For the same molecule, the Activity result in data set [9] is “Toxic”. Moreover, the negative-log EC50 (pEC50) in data set [5] and in data set [6] was 8.70 each time.
By half-life is commonly meant how long it takes for the measured level to halve. For orientation: pIC50 means the negative decadic logarithm of the IC50, by convention in mol/L. A high value points to a small IC50. On to `CS(=O)(=O)c1ccc(OCC[C@@H]2C[C@@H]2C2CCN(c3ncc(Cl)cn3)CC2)nc1`, for which the Vd in data set [10] amounted to 2.1 L/kg. This molecule had a half-life in data set [11] of 12.4 h. In data set [12], this molecule showed an AUC of 12.1 µM·kg·h/mg. In [13], this molecule gave a pIC50 of 4.72. Moreover, the concentration in solution in data set [7] (solubility) was 7.1 mg/mL (≈ 16.2 mM). The minimal effective dose in data set [8] came out at 1 mg/kg. Moreover, in [9], the Activity entry was “Non-toxic”. The molecule also displayed a clearance in data set [14] of 2.1 mL/min/kg. In addition, the pEC50 in data set [5] and in [6] was 8.40 in each case.
